Measured values as given in US20230263822A1, “MODULATION OF FACTOR 11 EXPRESSION” (Ionis Pharmaceuticals, Inc., priority 2008, published 2023).
Strand notation (5' to 3'): a small letter for the sugar, then the base; units joined by * are phosphorothioate-linked, units joined directly phosphodiester-linked; [ ] holds rarer units or linkages, { } end groups; capitals alone tell only the bases. e = 2'-O-(2-methoxyethyl) (MOE); [5mC] = 5-methylcytosine; d = 2'-deoxy (DNA)

Assays:
Type in all cases: cell-based
human Factor 11 mRNA [1] = experiment: Antisense inhibition of human Factor 11 in HepG2 cells, lipofectin, 75 nM (Example 1); conditions: 75 nM antisense oligonucleotide, ~24 h, relative to untreated control cells
Protocol: Antisense oligonucleotides targeted to a Factor 11 nucleic acid were tested for their effects on Factor 11 mRNA in vitro. Cultured HepG2 cells at a density of 10,000 cells per well were transfected using lipofectin reagent with 75 nM antisense oligonucleotide. After a treatment period of approximately 24 hours, RNA was isolated from the cells and Factor 11 mRNA levels were measured by quantitative real time PCR. Factor 11 mRNA levels were adjusted according to total RNA content, as measured by RIBOGREEN. Results are presented as percent inhibition of Factor 11, relative to untreated control cells.
The chimeric antisense oligonucleotides in Tables 1 and 2 were designed as 5-10-5 MOE gapmers. The gapmers are 20 nucleotides in length, wherein the central gap segment is comprised of 10 2′-deoxynucleotides and is flanked on both sides (in the 5′ and 3′ directions) by wings comprising 5 nucleotides each. Each nucleotide in the 5′ wing segment and each nucleotide in the 3′ wing segment has a 2′-MOE modification. The internucleoside linkages throughout each gapmer are phosphorothioate (P=S) linkages. All cytidine residues throughout each gapmer are 5-methylcytidines. “Target start site” indicates the 5′-most nucleotide to which the gapmer is targeted. “Target stop site” indicates the 3′-most nucleotide to which the gapmer is targeted. Each gapmer listed in Table 1 is targeted to SEQ TD NO: 1 (GENBANK Accession No. NM_000128.3) and each gapmer listed in Table 2 is targeted to SEQ TD NO: 2 (GENBANK Accession No. NT_022792.17, truncated from 19598000 to 19624000).

human Factor 11 mRNA [2] = experiment: Antisense inhibition of human Factor 11 in HepG2 cells by microwalk gapmers, lipofectin, 75 nM (Example 3)
How it was run: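 HepG2 cells (10,000/well) were transfected via lipofectin with 75 nM 20-mer MOE gapmers (phosphorothioate, 5-methyl-C) for about 24 h. Factor 11 mRNA was measured by qRT-PCR, normalized to RIBOGREEN total RNA, and given as percent inhibition versus untreated cells.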

human Factor 11 mRNA [3] = experiment: Dose-dependent inhibition of human Factor 11 in HepG2 cells, lipofectin 9.375-75 nM (Example 4); conditions: for percent inhibition of Factor 11 at 9.375 nM / percent inhibition of Factor 11 at 18.75 nM / percent inhibition of Factor 11 at 37.5 nM / percent inhibition of Factor 11 at 75 nM: relative to untreated control cells
Protocol: (§1) Cells were plated at a density of 10,000 cells per well and transfected using lipofectin reagent with 9.375 nM, 18.75 nM, 37.5 nM and 75 nM concentrations of antisense oligonucleotide, as specified in Table 9. After a treatment period of approximately 16 hours, RNA was isolated from the cells and Factor 11 mRNA levels were measured by quantitative real-time PCR. Human Factor 11 primer probe set RTS 2966 was used to measure mRNA levels. Factor 11 mRNA levels were adjusted according to total RNA content, as measured by RIBOGREEN. Results are presented as percent inhibition of Factor 11, relative to untreated control cells.

human Factor 11 mRNA [4] = experiment: Dose-dependent inhibition of human Factor 11 in HepG2 cells, electroporation 0.7-20 uM (Example 4); conditions: for percent inhibition of Factor 11 at 0.7 μM / percent inhibition of Factor 11 at 2.2 μM / percent inhibition of Factor 11 at 6.7 μM / percent inhibition of Factor 11 at 20 μM: relative to untreated control cells
Protocol: as §1, with “The gapmers were also transfected via electroporation and their dose dependent inhibition of human Factor 11 mRNA was measured. Cells” for “Cells”, “20,000” for “10,000”, “via electroporation” for “using lipofectin reagent”, “0.7 μM, 2.2 μM, 6.7 μM,” for “9.375 nM, 18.75 nM, 37.5 nM”, “20 μM” for “75 nM”, “10.” for “9.”

[5] = gapmers targeted to SEQ ID NO: 1
[6] = gapmers targeted to SEQ ID NO: 2
[7] = HepG2 cells, lipofectin, gapmers targeted to nucleobases 1062 to 1091 of SEQ ID NO: 1

## 412194 (antisense eT*eG*e[5mC]*eA*eA*dT*dT*d[5mC]*dT*dT*dA*dA*dT*dA*dA*eG*eG*eG*eT*eG) [compound 412194]
Human Factor 11 mRNA [1]; [5]
  % inhibition: 80%

## 412230 (antisense eG*eA*eT*eT*eT*dT*dG*dG*dT*dG*dG*dT*dA*d[5mC]*dA*e[5mC]*eT*e[5mC]*eA*eT) [compound 412230]
Human Factor 11 mRNA [1]; [5]
  % inhibition: 52%

## 413527 (antisense e[5mC]*e[5mC]*eA*eT*eA*dA*dT*dG*dA*dA*dG*dA*dA*dG*dG*eA*eA*eG*eG*eG) [compound 413527]
Human Factor 11 mRNA [1]; [6]
  % inhibition: 52%

## 413493 (antisense eT*eT*eT*e[5mC]*eT*dT*dG*dA*dA*d[5mC]*d[5mC]*d[5mC]*d[5mC]*dA*dA*eA*eG*eA*eA*eA) [compound 413493]
Human Factor 11 mRNA [1]; [5]
  % inhibition: 65%

## 413524 (antisense eG*eA*e[5mC]*eA*eT*dT*dA*dT*dA*d[5mC]*dT*d[5mC]*dA*d[5mC]*d[5mC]*eA*eT*eT*eA*eT) [compound 413524]
Human Factor 11 mRNA [1]; [6]
  % inhibition: 7%

## 413518 (antisense eA*eT*eG*eG*eA*dA*dT*d[5mC]*dT*d[5mC]*dT*dT*d[5mC]*dA*dT*eT*eT*e[5mC]*eA*eT) [compound 413518]
Human Factor 11 mRNA [1]; [6]
  % inhibition: 49%

## 413470 (antisense eG*eT*eT*eA*eT*dA*dG*dT*dT*dT*dA*dT*dG*d[5mC]*d[5mC]*e[5mC]*eT*eT*e[5mC]*eA) [compound 413470]
Human Factor 11 mRNA [1]; [5]
  % inhibition: 72%

## 412264 (antisense e[5mC]*eA*e[5mC]*eA*e[5mC]*dT*dT*dG*dA*dT*dG*dA*dA*dT*dT*eG*eT*eA*eT*eA) [compound 412264]
Human Factor 11 mRNA [1]; [5]
  % inhibition: 27%

## 413477 (antisense eA*e[5mC]*eT*eG*eA*dA*dA*d[5mC]*d[5mC]*dA*dG*dA*dA*dA*dG*eA*eG*e[5mC]*eT*eT) [compound 413477]
Human Factor 11 mRNA [1]; [5]
  % inhibition: 54%

## 412227 (antisense eA*eG*eT*eA*eT*dT*dT*dT*dA*dG*dT*dT*dG*dG*dA*eG*eA*eT*e[5mC]*e[5mC]) [compound 412227]
Human Factor 11 mRNA [1]; [5]
  % inhibition: 75%

## 412193 (antisense eT*eG*eT*eG*eT*dA*dG*dG*dA*dA*dA*dT*dG*dG*dT*e[5mC]*eA*e[5mC]*eT*eT) [compound 412193]
Human Factor 11 mRNA [1]; [5]
  % inhibition: 38%

## 412207 (antisense e[5mC]*eG*eT*eG*eA*dA*dA*dA*dA*dG*dT*dG*dG*d[5mC]*dA*eG*eT*eG*eG*eA) [compound 412207]
Human Factor 11 mRNA [1]; [5]
  % inhibition: 64%

## 412247 (antisense eT*eA*eG*e[5mC]*e[5mC]*dG*dG*d[5mC]*dA*d[5mC]*dA*dG*dA*dT*d[5mC]*eA*eT*e[5mC]*eT*eT) [compound 412247]
Human Factor 11 mRNA [1]; [5]
  % inhibition: 75%

## 412252 (antisense eT*eT*eA*eT*eG*dG*dT*dA*dA*dT*dT*d[5mC]*dT*dT*dG*eG*eA*e[5mC]*eT*e[5mC]) [compound 412252]
Human Factor 11 mRNA [1]; [5]
  % inhibition: 39%

## 413512 (antisense eA*eT*eA*eT*eT*dT*d[5mC]*dA*dA*dA*dA*dT*d[5mC]*d[5mC]*dA*eG*eT*eA*eT*eG) [compound 413512]
Human Factor 11 mRNA [1]; [6]
  % inhibition: 39%

## 413510 (antisense eT*eG*e[5mC]*eA*eA*dG*d[5mC]*dT*dG*dG*dA*dA*dA*dT*dA*eA*eA*eA*eG*e[5mC]) [compound 413510]
Human Factor 11 mRNA [1]; [6]
  % inhibition: 17%

## 412208 (antisense eA*eG*eA*e[5mC]*eA*dA*dA*dT*dG*dT*dT*dA*d[5mC]*dG*dA*eT*eG*e[5mC]*eT*e[5mC]) [compound 412208]
Human Factor 11 mRNA [1]; [5]
  % inhibition: 73%

## 413489 (antisense e[5mC]*eA*e[5mC]*eT*eG*dG*dT*dT*dT*d[5mC]*d[5mC]*dA*dA*dT*dG*eA*eT*eG*eG*eA) [compound 413489]
Human Factor 11 mRNA [1]; [5]
  % inhibition: 68%

## 413486 (antisense eG*eG*e[5mC]*eT*eT*dG*dA*dT*dT*dT*dT*dG*dG*dT*dG*eG*eT*eA*e[5mC]*eA) [compound 413486]
Human Factor 11 mRNA [1]; [5]
  % inhibition: 83%

## 412190 (antisense eA*eG*eT*eA*eT*dG*dT*d[5mC]*dA*dG*dA*dA*dA*dT*dA*eT*eA*e[5mC]*e[5mC]*eT) [compound 412190]
Human Factor 11 mRNA [1]; [5]
  % inhibition: 24%

## 413525 (antisense eG*eT*eA*eT*eA*dA*dA*dT*dG*dT*dG*dT*d[5mC]*dA*dA*eA*eT*eT*eA*eA) [compound 413525]
Human Factor 11 mRNA [1]; [6]
  % inhibition: 43%

## 416908 (antisense eG*e[5mC]*eA*dA*d[5mC]*d[5mC]*dG*dG*dG*dA*dT*dG*dA*dT*dG*dA*dG*eT*eG*e[5mC]) [compound 416908]
Human Factor 11 mRNA [2]; HepG2 cells, lipofectin, gapmers targeted to nucleobases 1018 to 1042 of SEQ ID NO: 1
  % inhibition: 98%
Human Factor 11 mRNA [3]
  IC50: 0.016 µM
  percent inhibition of Factor 11 at 9.375 nM: 36%
  percent inhibition of Factor 11 at 18.75 nM: 57%
  percent inhibition of Factor 11 at 37.5 nM: 67%
  percent inhibition of Factor 11 at 75 nM: 76%
Human Factor 11 mRNA [4]
  IC50: 2.8 µM
  percent inhibition of Factor 11 at 0.7 μM: 7%
  percent inhibition of Factor 11 at 2.2 μM: 58%
  percent inhibition of Factor 11 at 6.7 μM: 74%
  percent inhibition of Factor 11 at 20 μM: 89%

## 416827 (antisense eT*eA*eT*eG*e[5mC]*d[5mC]*d[5mC]*dT*dT*d[5mC]*dA*dT*dG*dT*d[5mC]*eT*eA*eG*eG*eT) [compound 416827]
Human Factor 11 mRNA [2]; HepG2, lipofectin, ~24 h, gapmers targeted to nucleobases 656 to 704 of SEQ ID NO: 1
  % inhibition: 93%
Human Factor 11 mRNA [3]
  IC50: 0.023 µM
  percent inhibition of Factor 11 at 9.375 nM: 31%
  percent inhibition of Factor 11 at 18.75 nM: 42%
  percent inhibition of Factor 11 at 37.5 nM: 62%
  percent inhibition of Factor 11 at 75 nM: 77%
Human Factor 11 mRNA [4]
  IC50: 1.1 µM
  percent inhibition of Factor 11 at 0.7 μM: 37%
  percent inhibition of Factor 11 at 2.2 μM: 68%
  percent inhibition of Factor 11 at 6.7 μM: 87%
  percent inhibition of Factor 11 at 20 μM: 92%

## 416993 (antisense e[5mC]*eT*dT*dT*dG*dA*dG*dA*dT*dT*d[5mC]*dT*dT*dT*dG*eG*eG*e[5mC]*e[5mC]*eA) [compound 416993]
Human Factor 11 mRNA [2]; [7]
  % inhibition: 91%
Human Factor 11 mRNA [3]
  IC50: 0.036 µM
  percent inhibition of Factor 11 at 9.375 nM: 15%
  percent inhibition of Factor 11 at 18.75 nM: 37%
  percent inhibition of Factor 11 at 37.5 nM: 50%
  percent inhibition of Factor 11 at 75 nM: 68%
Human Factor 11 mRNA [4]
  IC50: 2.2 µM
  percent inhibition of Factor 11 at 0.7 μM: 22%
  percent inhibition of Factor 11 at 2.2 μM: 48%
  percent inhibition of Factor 11 at 6.7 μM: 87%
  percent inhibition of Factor 11 at 20 μM: 92%

## 416842 (antisense eT*eG*eA*eG*eA*dT*dT*d[5mC]*dT*dT*dT*dG*dG*dG*d[5mC]*e[5mC]*eA*eT*eT*e[5mC]) [compound 416842]
Human Factor 11 mRNA [2]; [7]
  % inhibition: 94%
Human Factor 11 mRNA [3]
  IC50: 0.031 µM
  percent inhibition of Factor 11 at 9.375 nM: 18%
  percent inhibition of Factor 11 at 18.75 nM: 33%
  percent inhibition of Factor 11 at 37.5 nM: 62%
  percent inhibition of Factor 11 at 75 nM: 71%
Human Factor 11 mRNA [4]
  IC50: 5 µM
  percent inhibition of Factor 11 at 0.7 μM: 0%
  percent inhibition of Factor 11 at 2.2 μM: 10%
  percent inhibition of Factor 11 at 6.7 μM: 66%
  percent inhibition of Factor 11 at 20 μM: 92%
